Data on 4 compounds can be found in patent US9593149B2, “Amylin and calcitonin receptor agonist” (Novo Nordisk A/S, priority 2014, dated 2017).

≈ marks a conversion by molar mass, not a printed value. Numbered stars: 1 amine (or outer) side, 2 acyl side, 3 side chain; on linkers, the order of the positions; unused ones are H or OH. Peptide text beside a SMILES is read from it. * marks the point of attachment. C20 diacid = O=C(O)CCCCCCCCCCCCCCCCCCC(=O)*; C18 diacid = O=C(O)CCCCCCCCCCCCCCCCC(=O)*; γGlu = O=C(O)[C@H](CCC(=O)[*:2])N[*:1]

This data set is described as follows: Assay (IV) determination of solubility. The data set is classed as physicochemical. The procedure: Assay (IV)—Determination of Solubility
The mimylin peptide was dissolved in water at ˜500 nmol/ml and mixed 1:1 with a series of buffers (100 mM glycylglycine pH 3.0, 100 mM glycylglycine pH 4.0, 100 mM glycylglycine pH 5.0, 100 mM bistrispropane pH 6.0, 100 mM bistrispropane pH 6.5, 100 mM bistrispropane pH 7.0, 100 mM bistrispropane pH 7.5, 100 mM bistrispropane pH 8.0).

As for `CC(C)C[C@H](NC(=O)[C@H](C)NC(=O)[C@@H](NC(=O)[C@H](CO)NC(=O)[C@H](CC(C)C)NC(=O)[C@H](CCC(=O)O)NC(=O)[C@H](CO)NC(=O)[C@H](C)NC(=O)[C@H](CCC(=O)O)NC(=O)CCCCCCCCCCCCCCCCC(=O)O)[C@@H](C)O)C(=O)N[C@@H](CC(C)C)C(=O)NCC(=O)N[C@@H](CCCNC(=N)N)C(=O)N[C@@H](CC(C)C)C(=O)N[C@@H](CO)C(=O)N[C@@H](C)C(=O)N[C@@H](CCC(=O)O)C(=O)N[C@@H](CC(C)C)C(=O)N[C@@H](Cc1cnc[nH]1)C(=O)N[C@@H](CCC(=O)O)C(=O)N[C@@H](CC(C)C)C(=O)N[C@@H](C)C(=O)N[C@H](C(=O)N[C@@H](CC(C)C)C(=O)N1CCC[C@H]1C(=O)N[C@@H](CCCNC(=N)N)C(=O)N[C@H](C(=O)N[C@@H](CCC(=O)O)C(=O)N[C@H](C(=O)NCC(=O)N1CCC[C@H]1C(=O)N[C@@H](CCC(=O)O)C(=O)N[C@@H](CO)C(=O)N1CCC[C@H]1C(N)=O)[C@@H](C)O)[C@@H](C)O)[C@@H](C)O` [compound 14, [N-terminal(C18 diacid), 9L]mimylin] ({C18 diacid}-EASELSTALLGRLSAELHELATLPRTETGPESP-NH2), the Solubility result is listed as “≧200 μM” (pH 3.0); “≧200 μM” (pH 4.0); “≧200 μM” (pH 5.0); “≧200 μM” (pH 6.0); “≧200 μM” (pH 6.5); “≧200 μM” (pH 7.0). For the same compound, the Solubility entry (pH 7.5) is “≧200 μM” and the Solubility entry (pH 8.0) is reported as “≧200 μM”.

On to `CC(C)C[C@H](NC(=O)[C@H](C)NC(=O)[C@H](C)NC(=O)[C@@H](NC(=O)[C@H](CO)NC(=O)[C@H](CC(C)C)NC(=O)[C@H](CCC(N)=O)NC(=O)[C@H](CO)NC(=O)[C@H](C)NC(=O)CC[C@H](NC(=O)CCCCCCCCCCCCCCCCC(=O)O)C(=O)O)[C@@H](C)O)C(=O)NCC(=O)N[C@@H](CCCNC(=N)N)C(=O)N[C@@H](CC(C)C)C(=O)N[C@@H](CO)C(=O)N[C@@H](C)C(=O)N[C@@H](CCC(=O)O)C(=O)N[C@@H](CC(C)C)C(=O)N[C@@H](Cc1cnc[nH]1)C(=O)N[C@@H](CCC(=O)O)C(=O)N[C@@H](CC(C)C)C(=O)N[C@@H](C)C(=O)N[C@H](C(=O)N[C@@H](CC(C)C)C(=O)N1CCC[C@H]1C(=O)N[C@@H](CCCNC(=N)N)C(=O)N[C@H](C(=O)N[C@@H](CCC(=O)O)C(=O)N[C@H](C(=O)NCC(=O)N[C@@H](CO)C(=O)NCC(=O)N[C@@H](CO)C(=O)N1CCC[C@H]1C(N)=O)[C@@H](C)O)[C@@H](C)O)[C@@H](C)O` [compound 78, [N-terminal(C18 diacid-gGlu), des1, 4Q, 30S, 31G]mimylin] ({C18 diacid-γGlu}-ASQLSTAALGRLSAELHELATLPRTETGSGSP-NH2), for which the Solubility entry runs as follows: (pH 3.0) “≧200 μM”; (pH 4.0) “≧200 μM”; (pH 5.0) “≧200 μM”; (pH 6.0) “≧200 μM”; (pH 6.5) “≧200 μM”; (pH 7.0) “≧200 μM”. The Solubility result is, setting by setting: (pH 7.5) “≧200 μM”; (pH 8.0) “≧200 μM”.

Regarding `CC(C)C[C@H](NC(=O)CC[C@H](NC(=O)CCCCCCCCCCCCCCCCCCC(=O)O)C(=O)O)C(=O)N[C@@H](CO)C(=O)NCC(=O)N[C@@H](CC(C)C)C(=O)N[C@@H](CO)C(=O)N[C@H](C(=O)N[C@@H](C)C(=O)N[C@H](C(=O)N[C@@H](CC(C)C)C(=O)NCC(=O)N[C@@H](CCCNC(=N)N)C(=O)N[C@@H](CC(C)C)C(=O)N[C@@H](CO)C(=O)N[C@@H](CCC(N)=O)C(=O)N[C@@H](CCC(=O)O)C(=O)N[C@@H](CC(C)C)C(=O)N[C@@H](Cc1cnc[nH]1)C(=O)N[C@@H](CCC(=O)O)C(=O)N[C@@H](CC(C)C)C(=O)N[C@@H](CCC(N)=O)C(=O)N[C@H](C(=O)N[C@@H](Cc1ccc(O)cc1)C(=O)N1CCC[C@H]1C(=O)N[C@@H](CCCNC(=N)N)C(=O)N[C@H](C(=O)N[C@@H](CCC(=O)O)C(=O)N[C@H](C(=O)NCC(=O)N[C@@H](CO)C(=O)N[C@@H](CCC(N)=O)C(=O)N[C@H](C(=O)N[C@@H](Cc1ccc(O)cc1)C(N)=O)[C@@H](C)O)[C@@H](C)O)[C@@H](C)O)[C@@H](C)O)C(C)C)[C@@H](C)O` [compound 127, [N-terminal(C20 diacid-gGlu), des1, 2L, 4G, 9V, 15Q, 21Q, 23Y, 30S, 31Q, 32T, 33Y]mimylin] ({C20 diacid-γGlu}-LSGLSTAVLGRLSQELHELQTYPRTETGSQTY-NH2), the Solubility entry reads like this: (pH 3.0) “≧200 μM”; (pH 6.0) “≧200 μM”; (pH 6.5) “≧200 μM”; (pH 7.0) “≧200 μM”; (pH 7.5) “≧200 μM”; (pH 8.0) “≧200 μM”. This compound also gave a solubility at 18 h (pH 4.0) of 31 µM (≈ 124 µg/mL).

On to `CC(C)C[C@H](NC(=O)CNC(=O)[C@H](CO)NC(=O)[C@H](C)NC(=O)CC[C@H](NC(=O)CCCCCCCCCCCCCCCCCCC(=O)O)C(=O)O)C(=O)N[C@@H](CO)C(=O)N[C@H](C(=O)N[C@@H](C)C(=O)N[C@H](C(=O)N[C@@H](CC(C)C)C(=O)NCC(=O)N[C@@H](CCCNC(=N)N)C(=O)N[C@@H](CC(C)C)C(=O)N[C@@H](CO)C(=O)N[C@@H](CCC(N)=O)C(=O)N[C@@H](CCC(=O)O)C(=O)N[C@@H](CC(C)C)C(=O)N[C@@H](Cc1cnc[nH]1)C(=O)N[C@@H](CCC(=O)O)C(=O)N[C@@H](CC(C)C)C(=O)N[C@@H](CCC(N)=O)C(=O)N[C@H](C(=O)N[C@@H](Cc1ccc(O)cc1)C(=O)N1CCC[C@H]1C(=O)N1CCC[C@H]1C(=O)N[C@H](C(=O)N[C@@H](CCC(=O)O)C(=O)N[C@H](C(=O)NCC(=O)N[C@@H](CO)C(=O)N[C@@H](CCC(N)=O)C(=O)N[C@H](C(=O)N[C@@H](Cc1ccc(O)cc1)C(N)=O)[C@@H](C)O)[C@@H](C)O)[C@@H](C)O)[C@@H](C)O)C(C)C)[C@@H](C)O` [compound 125, [N-terminal(C20 diacid-gGlu), des1, 4G, 9V, 15Q, 21Q, 23Y, 25P, 30S, 31Q, 32T, 33Y]mimylin] ({C20 diacid-γGlu}-ASGLSTAVLGRLSQELHELQTYPPTETGSQTY-NH2), for which the Solubility result by setting is: (pH 3.0) “≧200 μM”; (pH 5.0) “≧200 μM”; (pH 6.0) “≧200 μM”; (pH 6.5) “≧200 μM”; (pH 7.0) “≧200 μM”; (pH 7.5) “≧200 μM”. The Solubility entry (pH 8.0) was “≧200 μM”. The compound further displayed a solubility at 18 h (pH 4.0) of 28 µM (≈ 109 µg/mL).

The solubility is the dissolved amount per volume that the medium holds. A lower solubility goes with little dissolved substance.
